Source: paper PMC8121435, “Cork-in-bottle mechanism of inhibitor binding to mammalian complex I” (Science Advances, 2021)

Columns and labels:
[1] = molecular target: T1, bovine complex I (Bos taurus, UniProt P03887+P17694+P42026); experiment: Inhibition kinetics in bovine complex I proteoliposomes with ubiquinone-10 and AOX; format: biochemical; conditions: versus ubiquinone-10, reciprocal plots and kinetic modelling
T1 construct: Complex I from bovine heart were prepared; from tissue; host or cells: bovine heart mitochondria
Protocol: Complex I from bovine heart were prepared and used to make proteoliposomes as described previously ([17], [23], [58]). Briefly, liposomes were formed from 8 mg of phosphatidylcholine, 1 mg of phosphatidylethanolamine, and 1 mg of cardiolipin (bovine heart extracts from Avanti Polar Lipids), together with varying amounts of ubiquinone-10 (Sigma-Aldrich), in ~800 μl of 10 mM 3-morpholinopropane-1-sulfonic acid (Mops)-KOH (pH 7.5) and 50 mM KCl. Following extrusion through a 100 nm of Nuclepore polycarbonate membrane (Whatman), the liposomes were partially solubilized with 0.5% sodium cholate (Anatrace), and 0.2 mg of complex I was added for reconstitution. […] Complex I concentration and orientation were quantified using the NADH:APAD^+ activity assay as described previously ([17], [23], [58]). Phospholipid phase volumes were calculated as described previously ([17], [23], [58]) to determine the amount of phospholipid present and by assuming that 1 mg of phospholipid occupies ∼1 μl. Ubiquinone-10 contents were quantified by HPLC, by reference to a set of standard samples, using a Nucleosil 100-5C18 column and a Dionex Ultimate 3000 RS electrochemical detector as described previously ([17], [23], [58]). […] All catalytic activity assays were conducted at 32°C in 96-well plates using a Molecular Devices Spectramax 384 plus plate reader. […]

[2] = molecular target: T2, complex I in bacterial membranes (Paracoccus denitrificans, UniProt P29916+P29918+P29920); experiment: NADH oxidation in P. denitrificans bacterial membranes; format: biochemical; conditions: P. denitrificans membranes 20 μg ml−1
T2 construct: Complex I was purified from P. denitrificans strain Pd1222; endogenous in cells; host or cells: P. denitrificans strain Pd1222
Protocol: All catalytic activity assays were conducted at 32°C in 96-well plates using a Molecular Devices Spectramax 384 plus plate reader. Catalysis was initiated by addition of 200 μM NADH and monitored at 340 and 380 nm (ε340–380 = 4.81 mM^−1 cm^−1). Linear rates were measured for all assays, inhibitors were added from dimethyl sulfoxide stock solutions as required, and inhibitor-insensitive rates (using either 1 μM piericidin A or 1.4 μM IACS-2858) were subtracted from each measured rate. Membrane samples were prepared as described previously ([17], [20], [59], [60]), diluted to 20 μg ml^−1 in 10 mM tris-SO4 (pH 7.5) and 250 mM sucrose, and supplemented with 3 μM horse heart cytochrome c (except for P. denitrificans, for which the activity is unaffected by the addition). Mouse, bovine, and yeast (Y. lipolytica) complex I were purified as described previously ([17], [20], [59]); diluted to 0.5 nM in 20 mM tris-HCl (pH 7.5), 0.15% asolectin, and 0.15% CHAPS; and assayed using either 200 μM dQ or 200 μM ubiquinone-1 (Sigma-Aldrich). Complex I was purified from P. denitrificans strain Pd1222 ([61]) and provided by O. D. Jarman (MRC Mitochondrial Biology Unit, University of Cambridge); it was assayed likewise but in 10 mM MES-HCl (pH 6.5), 25 mM NaCl, and 2 mM CaCl2. […]

Q: What does the source list for CS(=O)(=O)C1CCN(c2cccc(Cn3cc(-c4nc(-c5ccc(OC(F)(F)F)cc5)no4)ccc3=O)c2)CC1 [IACS-2858, 1-(3-(4-(Methylsulfonyl)piperidin-1-yl)benzyl)-5-(3-(4-(trifluoromethoxy)phenyl)-1,2,4-oxadiazol-5-yl)pyridin-2(1H)-one]?
A: mode of inhibition [1]: competitive; IC50 [2]: ~61 µM
